Results as given in DBAASP.
≈ marks a conversion by molar mass, not a printed value.

How the values were obtained:
Assay in all cases: ≥ marks a high value that may be exact or a test limit, other limits are often not marked, values filed in µg/mL are converted to µM
[1] = tested on: Escherichia coli UB1005
[2] = tested on: Pseudomonas aeruginosa ATCC 9027
[3] = tested on: Pseudomonas aeruginosa M1251
[4] = tested on: Pseudomonas aeruginosa M917
[5] = tested on: Staphylococcus aureus ATCC 6538
[6] = tested on: Ralstonia pickettii
[7] = tested on: Pseudomonas aeruginosa PAO1
[8] = tested on: Salmonella enterica serovar Typhimurium
[9] = tested on: Pseudomonas fluorescens
[10] = tested on: Pseudomonas aeruginosa
[11] = tested on: Achromobacter xylosoxidans
[12] = tested on: Candida albicans
[13] = tested on: Pseudomonas aeruginosa R70
[14] = tested on: Pseudomonas aeruginosa M76
[15] = tested on: Stenotrophomonas maltophilia
[16] = tested on: Pseudomonas aeruginosa M1426
[17] = tested on: Staphylococcus aureus
[18] = tested on: Staphylococcus aureus C623
[19] = tested on: Pseudomonas aeruginosa K799
[20] = tested on: Pseudomonas aeruginosa Z61
[21] = tested on: Escherichia coli DC2
[22] = tested on: Aeromonas salmonicida 99-1
[23] = tested on: Salmonella enterica serovar typhimurium MS7953s
[24] = tested on: Candida albicans C627
[25] = tested on: Staphylococcus epidermidis C621
[26] = tested on: Aeromonas salmonicida 97-4
[27] = tested on: Salmonella enterica subsp. enterica serovar Typhimurium ATCC 14028s
[28] = tested on: Escherichia coli CGSC 4908
[29] = tested on: Zymomonas mobilis ATCC 10988
[30] = tested on: Bacillus cereus
[31] = tested on: Streptococcus uberis
[32] = tested on: Staphylococcus epidermidis
[33] = tested on: Escherichia coli
[34] = tested on: Pasteurella multocida
[35] = tested on: Micrococcus luteus
[36] = tested on: Listeria innocua
[37] = tested on: Leuconostoc lactis
[38] = tested on: Pseudomonas aeruginosa H188
[39] = tested on: Enterococcus faecalis C625
[40] = tested on: Salmonella typhimurium C587
[41] = tested on: Salmonella typhimurium C610
[42] = tested on: Bacillus subtilis C971
[43] = tested on: Staphylococcus aureus SAP 0017
[44] = tested on: Corynebacterium xerosis C875
[45] = tested on: Staphylococcus aureus ATCC 25923
[46] = tested on: Pseudomonas aeruginosa H187

| Structure (SMILES) | MIC [1] | MIC [17] | MIC [21] | MIC [25] | MIC [3] | MIC [4] | MIC [6] | MIC [7] | MIC [8] | MIC [9] | MIC [10] | MIC [11] | MIC [12] | MIC [13] | MIC [14] | MIC [15] | MIC [16] | also measured |
| --- | --- | --- | --- | --- | --- | --- | --- | --- | --- | --- | --- | --- | --- | --- | --- | --- | --- | --- |
| CC(C)C[C@H](NC(=O)[C@H](CCCCN)NC(=O)[C@H](CCCCN)NC(=O)[C@H](C)NC(=O)[C@H](CC(C)C)NC(=O)[C@H](CCCCN)NC(=O)[C@H](CCCCN)NC(=O)[C@H](CC(C)C)NC(=O)[C@H](CCCCN)NC(=O)[C@H](CCCCN)NC(=O)[C@H](C)NC(=O)[C@H](CC(C)C)NC(=O)[C@H](CCCCN)NC(=O)[C@H](CCCCN)NC(=O)[C@H](C)NC(=O)[C@@H](N)Cc1ccccc1)C(=O)N[C@@H](C)C(=O)N[C@@H](CCCCN)C(=O)O [FAKKLAKKLKKLAKKLAK] | 0.973 µM (≈ 2 µg/mL) | > 62.3 µM |  |  | 3.89 µM (≈ 8 µg/mL) | 15.6 µM (≈ 32 µg/mL) | 1.95 µM (≈ 4 µg/mL) | 3.89 µM (≈ 8 µg/mL) | 3.89 µM (≈ 8 µg/mL) | 3.89 µM (≈ 8 µg/mL) | 7.78 µM (≈ 16 µg/mL) | 3.89 µM (≈ 8 µg/mL) | 15.6 µM (≈ 32 µg/mL) | 0.973 µM (≈ 2 µg/mL) | 3.89 µM (≈ 8 µg/mL) | 0.486 µM (≈ 1 µg/mL) | 3.89 µM (≈ 8 µg/mL) | MIC [2]: 7.3 µM (≈ 15 µg/mL); MIC [5]: 7.3 µM (≈ 15 µg/mL) |
| CC(C)C[C@H](NC(=O)[C@H](C)NC(=O)[C@H](CCCCN)NC(=O)[C@H](CCCCN)NC(=O)[C@H](CC(C)C)NC(=O)[C@H](C)NC(=O)[C@H](CCCCN)NC(=O)[C@H](CCCCN)NC(=O)[C@H](CC(C)C)NC(=O)[C@H](CCCCN)NC(=O)[C@H](CCCCN)NC(=O)[C@H](CC(C)C)NC(=O)[C@H](C)NC(=O)[C@H](CCCCN)NC(=O)[C@H](CC(C)C)NC(=O)[C@H](C)NC(=O)[C@@H](N)Cc1ccccc1)C(N)=O [FALKALKKLKKALKKAL] | 2.09 µM (≈ 4 µg/mL) | 4.18 µM (≈ 8 µg/mL) |  |  | 4.18 µM (≈ 8 µg/mL) | 8.37 µM (≈ 16 µg/mL) | 2.09 µM (≈ 4 µg/mL) | 4.18 µM (≈ 8 µg/mL) | 4.18 µM (≈ 8 µg/mL) | 2.09 µM (≈ 4 µg/mL) | 4.18 µM (≈ 8 µg/mL) | ≥ 66.9 µM | 8.37 µM (≈ 16 µg/mL) | 2.09 µM (≈ 4 µg/mL) | 8.37 µM (≈ 16 µg/mL) | 2.09 µM (≈ 4 µg/mL) | 8.37 µM (≈ 16 µg/mL) |  |
| CC(=O)[C@H](C)NC(=O)[C@H](C)NC(=O)[C@H](CC(N)=O)NC(=O)[C@H](CC(C)C)NC(=O)[C@H](Cc1ccc(O)cc1)NC(=O)CNC(=O)CNC(=O)CNC(=O)[C@H](Cc1cnc[nH]1)NC(=O)[C@H](Cc1cnc[nH]1)NC(=O)[C@@H](NC(=O)CNC(=O)[C@H](Cc1cnc[nH]1)NC(=O)[C@H](Cc1ccccc1)NC(=O)[C@H](CC(C)C)NC(=O)[C@H](CC(C)C)NC(=O)[C@H](CCCNC(=N)N)NC(=O)[C@H](Cc1ccccc1)NC(=O)[C@@H](N)Cc1ccccc1)C(C)C [FFRLLFHGVHHGGGYLNAA] | 30.3 µM (≈ 63.9 µg/mL) |  | 30.3 µM (≈ 63.9 µg/mL) | 30.3 µM (≈ 63.9 µg/mL) |  |  |  |  |  |  |  |  |  |  |  |  |  | MIC [18]: 30.3 µM (≈ 63.9 µg/mL); MIC [19]: 30.3 µM (≈ 63.9 µg/mL); MIC [20]: 30.3 µM (≈ 63.9 µg/mL); MIC [22]: 30.3 µM (≈ 63.9 µg/mL); MIC [23]: 30.3 µM (≈ 63.9 µg/mL); MIC [24]: 30.3 µM (≈ 63.9 µg/mL); MIC [26]: 30.3 µM (≈ 63.9 µg/mL); MIC [27]: 30.3 µM (≈ 63.9 µg/mL); MIC [28]: 30.3 µM (≈ 63.9 µg/mL) |
| CC[C@H](C)[C@H](NC(=O)[C@H](CCCCN)NC(=O)[C@H](CCC(N)=O)NC(=O)[C@@H](NC(=O)[C@@H](NC(=O)[C@H](CCCN=C(N)N)NC(=O)[C@H](CCCCN)NC(=O)[C@@H](N)Cc1ccccc1)[C@@H](C)CC)C(C)C)C(=O)N[C@@H](CCCCN)C(=O)N[C@@H](CC(=O)O)C(=O)N[C@@H](Cc1ccccc1)C(=O)N[C@@H](CC(C)C)C(=O)N[C@@H](CCCN=C(N)N)C(N)=O [FKRIVQKIKDFLR] |  |  |  |  |  |  |  |  |  |  |  |  |  |  |  |  |  | MIC [29]: ≥ 118 µM |

Further lines, with some results ahead:

| MIC [1] | MIC [17] | MIC [21] | MIC [25] | Structure (SMILES) | MIC [3] | MIC [4] | MIC [6] | MIC [7] | MIC [8] | MIC [9] | MIC [10] | MIC [11] | MIC [12] | MIC [13] | MIC [14] | MIC [15] | MIC [16] | also measured |
| --- | --- | --- | --- | --- | --- | --- | --- | --- | --- | --- | --- | --- | --- | --- | --- | --- | --- | --- |
|  | 28.3 µM (≈ 50 µg/mL) |  |  | CC[C@H](C)[C@H](NC(=O)[C@H](CO)NC(=O)[C@H](CO)NC(=O)[C@H](C)NC(=O)[C@@H](NC(=O)[C@H](Cc1cnc[nH]1)NC(=O)CNC(=O)[C@H](C)NC(=O)[C@@H](NC(=O)[C@H](CCCCN)NC(=O)[C@H](CCCCN)NC(=O)[C@@H](NC(=O)[C@@H](NC(=O)[C@H](CC(=O)O)NC(=O)[C@H](Cc1ccccc1)NC(=O)[C@H](CC(C)C)NC(=O)CN)[C@@H](C)CC)C(C)C)[C@@H](C)CC)[C@@H](C)CC)C(N)=O [GLFDIVKKIAGHIASSI] |  |  |  |  |  |  |  |  |  |  |  |  |  | MIC [30]: ≥ 56.5 µM; MIC [31]: 28.3 µM (≈ 50 µg/mL); MIC [32]: 28.3 µM (≈ 50 µg/mL); MIC [33]: > 56.5 µM; MIC [34]: ≥ 56.5 µM; MIC [35]: ≥ 56.5 µM; MIC [36]: ≥ 56.5 µM; MIC [37]: 3.39 µM (≈ 6 µg/mL) |
| 0.869 µM (≈ 2.54 µg/mL) |  | 0.869 µM (≈ 2.54 µg/mL) | 1.11 µM (≈ 3.25 µg/mL) | CC[C@H](C)[C@H](NC(=O)[C@H](C)NC(=O)[C@H](CCCCN)NC(=O)[C@H](CC(C)C)NC(=O)[C@H](C)NC(=O)[C@@H](NC(=O)[C@H](Cc1cnc[nH]1)NC(=O)[C@H](CC(C)C)NC(=O)[C@@H](NC(=O)[C@@H](NC(=O)[C@H](CCCCN)NC(=O)CNC(=O)[C@H](C)NC(=O)[C@H](CO)NC(=O)[C@H](CCCCN)NC(=O)[C@H](Cc1ccccc1)NC(=O)[C@@H](NC(=O)[C@H](CCCCN)NC(=O)[C@H](CC(C)C)NC(=O)[C@H](Cc1ccccc1)NC(=O)[C@H](CO)NC(=O)[C@H](CCCCN)NC(=O)[C@H](Cc1c[nH]c2ccccc12)NC(=O)[C@H](CCCCN)NC(C)=O)[C@@H](C)O)[C@@H](C)O)C(C)C)[C@@H](C)O)C(=O)N[C@@H](CO)C(=O)N[C@@H](CO)C(N)=O [KWKSFLKTFKSAGKTVLHTALKAISS] |  |  |  |  |  |  |  |  |  |  |  |  |  | MIC [38]: 3.51 µM (≈ 10.2 µg/mL); MIC [39]: 17.6 µM (≈ 51.5 µg/mL); MIC [40]: 1.74 µM (≈ 5.07 µg/mL); MIC [41]: 0.869 µM (≈ 2.54 µg/mL); MIC [42]: 0.695 µM (≈ 2.03 µg/mL); MIC [43]: 3.51 µM (≈ 10.2 µg/mL); MIC [44]: 0.695 µM (≈ 2.03 µg/mL); MIC [45]: 8.82 µM (≈ 25.8 µg/mL); MIC [46]: 2.22 µM (≈ 6.49 µg/mL) |
